Laboratory results published in PubChem BioAssay AID248 (DTP/NCI, 2004).
Several values for one entry are separate records, joined by “and”; a condition that tells them apart may be missing. Equal entries are not always repeated. Toxic doses and inconclusive results are not listed. No stated cut-off is given here; in the data, active means T/C of 150% or more; inactive means T/C below 125%.

Test system: L1210 leukemia ip in BDF1 mice, survival T/C
Assay: NCI In Vivo Anticancer Drug Screen. Data for tumor model L1210 Leukemia (intraperitoneal) in B6D2F1 (BDF1) mice
Conditions: endpoint: mean survival time, higher = longer survival
Method in brief: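 Mice bearing the transplanted tumor received compound or vehicle. Survival of the treated group was divided by that of the vehicle-treated control group to give the ratio.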

[1] = dose: 100.0 mg/kg/injection, schedule: Q01DX009 (ip), vehicle: Klucel (hydroxypropylcellulose) (HPC)
[2] = dose: 100.0 mg/kg/injection, schedule: Q04DX002 (ip), vehicle: Klucel (hydroxypropylcellulose) (HPC)
[3] = dose: 100.0 mg/kg/injection, schedule: Q01DX001 (ip), vehicle: saline
[4] = dose: 200.0 mg/kg/injection, schedule: Q01DX001 (ip), vehicle: saline
[5] = dose: 100.0 mg/kg/injection, schedule: Q04DX003 (ip), vehicle: Klucel (hydroxypropylcellulose) (HPC)
[6] = dose: 200.0 mg/kg/injection, schedule: Q04DX003 (ip), vehicle: Klucel (hydroxypropylcellulose) (HPC)
[7] = dose: 400.0 mg/kg/injection, schedule: Q04DX003 (ip), vehicle: Klucel (hydroxypropylcellulose) (HPC)
[8] = dose: 200.0 mg/kg/injection, schedule: Q01DX009 (ip), vehicle: Klucel (hydroxypropylcellulose) (HPC)
[9] = dose: 100.0 mg/kg/injection, schedule: Q01DX009 (ip), vehicle: saline
[10] = dose: 200.0 mg/kg/injection, schedule: Q01DX009 (ip), vehicle: saline
[11] = dose: 200.0 mg/kg/injection, schedule: Q04DX002 (ip), vehicle: saline
[12] = dose: 400.0 mg/kg/injection, schedule: Q01DX009 (ip), vehicle: saline
[13] = dose: 100.0 mg/kg/injection, schedule: Q04DX003 (ip), vehicle: saline
[14] = dose: 200.0 mg/kg/injection, schedule: Q04DX003 (ip), vehicle: saline
[15] = dose: 400.0 mg/kg/injection, schedule: Q04DX003 (ip), vehicle: saline
[16] = dose: 400.0 mg/kg/injection, schedule: Q01DX001 (ip), vehicle: saline

Measured: T/C

COC(=O)c1ccccc1NC(=O)c1ccccc1C(=O)O
inactive: dose: 25.0 mg/kg/injection, schedule: Q01DX009 (ip), vehicle: Klucel (hydroxypropylcellulose) (HPC) 100 % of control | dose: 50.0 mg/kg/injection, schedule: Q01DX009 (ip), vehicle: Klucel (hydroxypropylcellulose) (HPC) 103 % of control | [1] 93 % of control and 102 % of control | [2] 98 % of control | dose: 150.0 mg/kg/injection, schedule: Q01DX009 (ip), vehicle: Klucel (hydroxypropylcellulose) (HPC) 100 % of control | dose: 225.0 mg/kg/injection, schedule: Q01DX009 (ip), vehicle: Klucel (hydroxypropylcellulose) (HPC) 97 % of control | dose: 335.0 mg/kg/injection, schedule: Q01DX009 (ip), vehicle: Klucel (hydroxypropylcellulose) (HPC) 102 % of control

CC12CCCC(C(C#N)C(N)=O)(C1)NC(=O)C2C#N (configuration not stated)
inactive: [3] 107 % of control | [4] 96 % of control

CCCCCCCC(C(C)=O)C(=O)OCC (configuration not stated)
inactive: dose: 100.0 mg/kg/injection, schedule: Q01DX001 (ip), vehicle: saline with Tween-80 95 % of control | dose: 200.0 mg/kg/injection, schedule: Q01DX001 (ip), vehicle: saline with Tween-80 103 % of control | dose: 400.0 mg/kg/injection, schedule: Q01DX001 (ip), vehicle: saline with Tween-80 95 % of control

COc1cc(-c2ccccc2)c([N+](=O)[O-])cc1[N+](=O)[O-]
inactive: dose: 100.0 mg/kg/injection, schedule: Q01DX001 (ip), vehicle: carboxymethylcellulose (CMC) 107 % of control | dose: 200.0 mg/kg/injection, schedule: Q01DX001 (ip), vehicle: carboxymethylcellulose (CMC) 110 % of control | dose: 400.0 mg/kg/injection, schedule: Q01DX001 (ip), vehicle: carboxymethylcellulose (CMC) 116 % of control

FC(F)(F)c1ccc2c(c1)N(CCCN1CCN(CCCl)CC1)c1ccccc1S2
inactive: dose: 0.78 mg/kg/injection, schedule: Q01DX009 (ip), vehicle: saline 101 % of control | dose: 1.56 mg/kg/injection, schedule: Q01DX009 (ip), vehicle: saline 107 % of control | dose: 3.12 mg/kg/injection, schedule: Q01DX009 (ip), vehicle: saline 107 % of control | dose: 6.25 mg/kg/injection, schedule: Q04DX003 (ip), vehicle: saline 96 % of control | dose: 12.5 mg/kg/injection, schedule: Q01DX009 (ip), vehicle: saline 110 % of control | dose: 12.5 mg/kg/injection, schedule: Q04DX003 (ip), vehicle: saline 97 % of control | dose: 25.0 mg/kg/injection, schedule: Q04DX003 (ip), vehicle: saline 110 % of control | dose: 50.0 mg/kg/injection, schedule: Q04DX003 (ip), vehicle: saline 89 % of control

Cc1cc(C(=O)O)c(C)[nH]1
inactive: dose: 25.0 mg/kg/injection, schedule: Q04DX003 (ip), vehicle: Klucel (hydroxypropylcellulose) (HPC) 105 % of control | dose: 50.0 mg/kg/injection, schedule: Q04DX003 (ip), vehicle: Klucel (hydroxypropylcellulose) (HPC) 100 % of control | dose: 75.0 mg/kg/injection, schedule: Q04DX003 (ip), vehicle: Klucel (hydroxypropylcellulose) (HPC) 101 % of control | [5] 93 % of control | [6] 95 % of control | [7] 101 % of control

COc1cccc(/C(=C/c2ccc([N+](=O)[O-])cc2)C(=O)Nc2ccc(S(=O)(=O)F)cc2)c1
inactive: [1] 101 % of control | [8] 90 % of control | dose: 400.0 mg/kg/injection, schedule: Q01DX009 (ip), vehicle: Klucel (hydroxypropylcellulose) (HPC) 90 % of control

CN(C)c1n[nH]c(N)n1
inactive: dose: 25.0 mg/kg/injection, schedule: Q01DX009 (ip), vehicle: saline 100 % of control | dose: 25.0 mg/kg/injection, schedule: Q04DX002 (ip), vehicle: saline 110 % of control | dose: 50.0 mg/kg/injection, schedule: Q01DX009 (ip), vehicle: saline 98 % of control | dose: 50.0 mg/kg/injection, schedule: Q04DX002 (ip), vehicle: saline 103 % of control | [9] 96 % of control | [10] 108 % of control | dose: 200.0 mg/kg/injection, schedule: Q04DX002 (ip), vehicle: saline with Tween-80 111 % of control | [11] 103 % of control | [12] 116 % of control | dose: 400.0 mg/kg/injection, schedule: Q04DX002 (ip), vehicle: saline with Tween-80 108 % of control

Cc1ccc([N+](=O)[O-])cc1NC(=O)OCC1CCCO1 (configuration not stated)
inactive: [2] 87 % of control | dose: 200.0 mg/kg/injection, schedule: Q04DX002 (ip), vehicle: Klucel (hydroxypropylcellulose) (HPC) 87 % of control | dose: 400.0 mg/kg/injection, schedule: Q04DX002 (ip), vehicle: Klucel (hydroxypropylcellulose) (HPC) 97 % of control

COC(=O)C(C)NC(=O)C1CSC(C)(C)N1C=O (configuration not stated)
inactive: [13] 101 % of control | [14] 95 % of control | [15] 95 % of control

NS(=O)(=O)c1ccc(N=Cc2ccccc2)cc1
inactive: dose: 100.0 mg/kg/injection, schedule: Q01DX009 (ip), vehicle: saline with Tween-80 89 % of control | dose: 200.0 mg/kg/injection, schedule: Q01DX009 (ip), vehicle: saline with Tween-80 92 % of control | dose: 400.0 mg/kg/injection, schedule: Q01DX009 (ip), vehicle: saline with Tween-80 94 % of control

CCCC(=O)N1CC(C)OC(C)C1 (configuration not stated)
inactive: [3] 100 % of control | [9] 98 % of control and 104 % of control | dose: 100.0 mg/kg/injection, schedule: Q04DX002 (ip), vehicle: saline 109 % of control | [13] 98 % of control | [4] 93 % of control | [10] 100 % of control and 104 % of control | [11] 115 % of control | [14] 104 % of control | [16] 104 % of control | [12] 96 % of control and 107 % of control | dose: 400.0 mg/kg/injection, schedule: Q04DX002 (ip), vehicle: saline 102 % of control | [15] 100 % of control

COc1ccc2ccc(=O)oc2c1CC=C(C)C
inactive: dose: 100.0 mg/kg/injection, schedule: Q01DX001 (ip), vehicle: other 98 % of control | dose: 200.0 mg/kg/injection, schedule: Q01DX001 (ip), vehicle: other 93 % of control | dose: 400.0 mg/kg/injection, schedule: Q01DX001 (ip), vehicle: other 101 % of control

COc1ccc2nc3cc(Cl)ccc3c(Nc3ccc(O)c(CN4CCN(C)CC4)c3)c2c1
inactive: dose: 75.0 mg/kg/injection, schedule: Q01DX001 (ip), vehicle: other 96 % of control | dose: 75.0 mg/kg/injection, schedule: Q04DX003 (ip), vehicle: other 94 % of control | dose: 150.0 mg/kg/injection, schedule: Q01DX001 (ip), vehicle: other 100 % of control | dose: 150.0 mg/kg/injection, schedule: Q04DX003 (ip), vehicle: other 97 % of control | dose: 300.0 mg/kg/injection, schedule: Q01DX001 (ip), vehicle: other 97 % of control

COc1ccc(C(=O)/C=C/c2ccc(Cl)cc2)cc1
inactive: [5] 100 % of control | [6] 95 % of control | [7] 92 % of control

C/C=C(/Cl)c1c(C)cc(C)c(CC(=O)O)c1C
inactive: [5] 92 % of control | dose: 130.0 mg/kg/injection, schedule: Q01DX009 (ip), vehicle: Klucel (hydroxypropylcellulose) (HPC) 110 % of control | [8] 114 % of control | [6] 90 % of control | [7] 105 % of control

O=C1NC(=S)SC1C(Cc1ccccc1)Cc1ccccc1 (configuration not stated)
inactive: [3] 97 % of control | [4] 97 % of control | [16] 101 % of control
